In PMC8222254, “Self-assembly of an anion receptor with metal-dependent kinase inhibition and potent in vitro anti-cancer properties” (Nature Communications, 2021):
“And” between values parts separate entries of the source, which are not always exact repeats. Equal entries are not always repeated.

Assays:
Experiment in all cases: Kinase inhibition screen, cell-free 33P ATP assay at 10 μM
Format in all cases: biochemical
[1] = molecular target: 140 purified human kinases (Homo sapiens, UniProt Q14680); conditions: MELK
Sequence of 140 purified human kinases (Homo sapiens, UniProt Q14680) (Q14680 whole entry): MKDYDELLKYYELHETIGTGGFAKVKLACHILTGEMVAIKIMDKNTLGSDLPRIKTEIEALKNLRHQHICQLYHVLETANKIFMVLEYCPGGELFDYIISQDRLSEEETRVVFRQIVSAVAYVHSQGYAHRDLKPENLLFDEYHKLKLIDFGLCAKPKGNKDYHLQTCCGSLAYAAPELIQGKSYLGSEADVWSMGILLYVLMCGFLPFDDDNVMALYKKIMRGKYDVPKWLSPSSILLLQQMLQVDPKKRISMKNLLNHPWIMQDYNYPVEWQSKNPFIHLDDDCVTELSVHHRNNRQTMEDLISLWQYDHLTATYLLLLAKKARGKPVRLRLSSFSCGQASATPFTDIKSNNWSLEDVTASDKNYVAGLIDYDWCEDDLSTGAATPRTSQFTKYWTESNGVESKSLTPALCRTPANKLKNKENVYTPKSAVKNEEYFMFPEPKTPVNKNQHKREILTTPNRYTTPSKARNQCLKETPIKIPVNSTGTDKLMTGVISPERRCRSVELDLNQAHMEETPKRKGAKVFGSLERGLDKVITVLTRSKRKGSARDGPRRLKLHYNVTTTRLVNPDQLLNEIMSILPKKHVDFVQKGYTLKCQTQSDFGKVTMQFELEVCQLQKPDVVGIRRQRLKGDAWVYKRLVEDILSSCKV
In short: (§1)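 Radiometric ^33P ATP cell-free format with purified enzymes; both complexes run at 10 μM in duplicate, results plotted on a kinome map via HGNC symbols.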

[2] = molecular target: 140 purified human kinases (Homo sapiens, UniProt Q96GD4); conditions: Aurora B
Sequence of 140 purified human kinases (Homo sapiens, UniProt Q96GD4) (Q96GD4 whole entry): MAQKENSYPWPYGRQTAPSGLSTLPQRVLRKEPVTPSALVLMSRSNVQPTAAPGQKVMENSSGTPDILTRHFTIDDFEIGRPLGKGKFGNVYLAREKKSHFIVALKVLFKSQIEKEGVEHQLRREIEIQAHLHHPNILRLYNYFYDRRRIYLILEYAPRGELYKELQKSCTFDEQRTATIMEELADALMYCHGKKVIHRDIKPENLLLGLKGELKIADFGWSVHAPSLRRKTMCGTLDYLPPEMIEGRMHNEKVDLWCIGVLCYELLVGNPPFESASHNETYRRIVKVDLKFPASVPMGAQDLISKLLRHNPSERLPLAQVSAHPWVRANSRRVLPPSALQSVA
In short: as §1

[3] = molecular target: T1, 140 purified human kinases (Homo sapiens, UniProt P52333)
T1 sequence (P52333 1-1124): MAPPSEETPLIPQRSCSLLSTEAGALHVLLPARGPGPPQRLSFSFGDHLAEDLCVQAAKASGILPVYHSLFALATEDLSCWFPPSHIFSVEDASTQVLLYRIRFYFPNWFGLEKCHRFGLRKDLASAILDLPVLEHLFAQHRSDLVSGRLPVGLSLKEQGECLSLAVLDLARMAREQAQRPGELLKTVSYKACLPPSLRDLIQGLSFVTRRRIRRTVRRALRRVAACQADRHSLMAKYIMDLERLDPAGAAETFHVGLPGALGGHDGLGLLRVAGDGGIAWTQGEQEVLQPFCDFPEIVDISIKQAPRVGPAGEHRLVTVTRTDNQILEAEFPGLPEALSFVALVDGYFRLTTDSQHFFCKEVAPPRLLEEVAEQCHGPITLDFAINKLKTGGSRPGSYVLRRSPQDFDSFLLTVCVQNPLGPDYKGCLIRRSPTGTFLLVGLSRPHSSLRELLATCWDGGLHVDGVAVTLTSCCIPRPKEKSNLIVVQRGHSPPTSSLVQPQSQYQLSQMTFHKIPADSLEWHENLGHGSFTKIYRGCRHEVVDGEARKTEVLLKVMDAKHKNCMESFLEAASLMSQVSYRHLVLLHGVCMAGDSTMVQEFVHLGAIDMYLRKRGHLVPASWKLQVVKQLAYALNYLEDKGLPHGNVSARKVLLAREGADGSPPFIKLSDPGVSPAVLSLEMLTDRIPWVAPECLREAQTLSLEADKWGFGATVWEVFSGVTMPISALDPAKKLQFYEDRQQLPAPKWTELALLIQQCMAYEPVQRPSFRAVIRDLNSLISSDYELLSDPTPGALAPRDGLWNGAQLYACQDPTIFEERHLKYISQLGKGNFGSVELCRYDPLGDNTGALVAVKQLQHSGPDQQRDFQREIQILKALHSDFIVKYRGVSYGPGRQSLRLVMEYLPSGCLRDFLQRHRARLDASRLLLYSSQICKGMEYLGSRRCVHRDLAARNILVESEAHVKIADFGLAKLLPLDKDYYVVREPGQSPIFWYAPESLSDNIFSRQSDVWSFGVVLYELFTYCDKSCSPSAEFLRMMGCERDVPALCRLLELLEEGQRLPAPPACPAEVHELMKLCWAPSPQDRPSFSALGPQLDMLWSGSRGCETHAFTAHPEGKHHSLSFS
In short: as §1

[4] = molecular target: 140 purified human kinases (Homo sapiens, UniProt Q15303)
Sequence of 140 purified human kinases (Homo sapiens, UniProt Q15303) (Q15303 26-1308): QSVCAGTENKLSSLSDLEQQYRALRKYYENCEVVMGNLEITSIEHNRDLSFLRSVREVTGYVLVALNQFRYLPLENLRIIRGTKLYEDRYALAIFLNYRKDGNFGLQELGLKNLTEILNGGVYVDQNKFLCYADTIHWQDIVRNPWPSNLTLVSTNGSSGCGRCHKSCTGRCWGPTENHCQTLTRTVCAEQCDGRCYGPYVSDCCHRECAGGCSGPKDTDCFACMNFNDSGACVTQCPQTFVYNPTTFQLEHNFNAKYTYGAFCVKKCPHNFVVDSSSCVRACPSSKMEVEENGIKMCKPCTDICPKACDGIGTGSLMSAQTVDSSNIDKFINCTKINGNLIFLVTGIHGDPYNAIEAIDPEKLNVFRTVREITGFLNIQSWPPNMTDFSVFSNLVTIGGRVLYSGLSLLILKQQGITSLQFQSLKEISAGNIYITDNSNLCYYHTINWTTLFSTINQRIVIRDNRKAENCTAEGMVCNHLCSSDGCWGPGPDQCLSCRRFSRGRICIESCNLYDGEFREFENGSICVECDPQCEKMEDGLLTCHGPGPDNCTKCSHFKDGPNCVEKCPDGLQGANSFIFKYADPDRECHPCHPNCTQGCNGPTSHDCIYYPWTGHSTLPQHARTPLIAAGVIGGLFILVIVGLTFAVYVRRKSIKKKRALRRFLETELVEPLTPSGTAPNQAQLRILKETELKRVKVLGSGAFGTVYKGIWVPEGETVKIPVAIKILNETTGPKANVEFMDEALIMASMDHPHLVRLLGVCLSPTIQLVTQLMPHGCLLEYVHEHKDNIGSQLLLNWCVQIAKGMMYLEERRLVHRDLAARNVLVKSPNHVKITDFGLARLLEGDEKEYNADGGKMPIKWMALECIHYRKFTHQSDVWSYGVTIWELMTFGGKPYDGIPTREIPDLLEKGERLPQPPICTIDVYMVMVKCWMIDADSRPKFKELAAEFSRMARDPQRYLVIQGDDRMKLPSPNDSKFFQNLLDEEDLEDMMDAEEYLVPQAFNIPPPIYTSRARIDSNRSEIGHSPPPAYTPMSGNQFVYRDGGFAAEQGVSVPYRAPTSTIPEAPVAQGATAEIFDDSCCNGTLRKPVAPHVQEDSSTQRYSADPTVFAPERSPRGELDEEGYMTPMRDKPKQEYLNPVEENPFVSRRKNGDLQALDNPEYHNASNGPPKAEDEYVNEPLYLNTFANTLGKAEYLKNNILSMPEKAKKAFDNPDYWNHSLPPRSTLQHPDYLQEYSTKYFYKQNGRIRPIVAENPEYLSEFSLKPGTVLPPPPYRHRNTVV
In short: as §1

[5] = molecular target: T2, 140 purified human kinases (Homo sapiens, UniProt O15264); conditions: p38d MAPK
T2 sequence (O15264 1-365): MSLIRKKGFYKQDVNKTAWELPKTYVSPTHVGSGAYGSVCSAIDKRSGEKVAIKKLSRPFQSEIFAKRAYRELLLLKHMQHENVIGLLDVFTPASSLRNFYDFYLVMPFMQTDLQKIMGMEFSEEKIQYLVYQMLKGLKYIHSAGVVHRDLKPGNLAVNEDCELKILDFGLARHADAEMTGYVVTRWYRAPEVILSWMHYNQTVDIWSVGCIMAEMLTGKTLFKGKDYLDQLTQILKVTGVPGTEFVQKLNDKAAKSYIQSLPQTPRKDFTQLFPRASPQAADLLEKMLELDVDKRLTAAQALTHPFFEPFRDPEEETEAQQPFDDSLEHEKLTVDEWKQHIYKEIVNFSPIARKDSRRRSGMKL
In short: as §1

[6] = molecular target: 140 purified human kinases (Homo sapiens, UniProt Q16584)
Sequence of 140 purified human kinases (Homo sapiens, UniProt Q16584) (Q16584 whole entry): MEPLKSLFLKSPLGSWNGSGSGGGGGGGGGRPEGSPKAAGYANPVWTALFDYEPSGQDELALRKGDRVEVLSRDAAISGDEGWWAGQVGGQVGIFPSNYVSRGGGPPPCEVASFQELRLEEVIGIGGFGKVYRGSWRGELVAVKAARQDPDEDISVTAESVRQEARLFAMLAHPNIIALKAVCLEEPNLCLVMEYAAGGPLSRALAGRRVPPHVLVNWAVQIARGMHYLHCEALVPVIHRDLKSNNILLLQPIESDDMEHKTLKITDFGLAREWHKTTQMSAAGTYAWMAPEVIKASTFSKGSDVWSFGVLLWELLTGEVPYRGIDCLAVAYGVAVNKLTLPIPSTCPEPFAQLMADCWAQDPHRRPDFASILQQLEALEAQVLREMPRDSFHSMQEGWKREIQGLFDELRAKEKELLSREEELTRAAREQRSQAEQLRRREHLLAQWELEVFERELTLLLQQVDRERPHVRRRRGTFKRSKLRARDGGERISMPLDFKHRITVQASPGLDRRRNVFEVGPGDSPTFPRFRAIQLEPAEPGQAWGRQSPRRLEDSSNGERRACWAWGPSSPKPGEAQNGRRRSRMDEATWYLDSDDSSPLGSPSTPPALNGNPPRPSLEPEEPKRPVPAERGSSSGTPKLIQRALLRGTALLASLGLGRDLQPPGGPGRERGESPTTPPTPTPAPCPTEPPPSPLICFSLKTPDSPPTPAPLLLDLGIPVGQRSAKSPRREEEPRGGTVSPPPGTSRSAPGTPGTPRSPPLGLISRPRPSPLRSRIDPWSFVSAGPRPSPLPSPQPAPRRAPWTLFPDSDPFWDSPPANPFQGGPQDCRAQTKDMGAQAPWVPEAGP
In short: as §1

[7] = molecular target: 140 purified human kinases (Homo sapiens, UniProt Q9HC98)
Sequence of 140 purified human kinases (Homo sapiens, UniProt Q9HC98) (Q9HC98 whole entry): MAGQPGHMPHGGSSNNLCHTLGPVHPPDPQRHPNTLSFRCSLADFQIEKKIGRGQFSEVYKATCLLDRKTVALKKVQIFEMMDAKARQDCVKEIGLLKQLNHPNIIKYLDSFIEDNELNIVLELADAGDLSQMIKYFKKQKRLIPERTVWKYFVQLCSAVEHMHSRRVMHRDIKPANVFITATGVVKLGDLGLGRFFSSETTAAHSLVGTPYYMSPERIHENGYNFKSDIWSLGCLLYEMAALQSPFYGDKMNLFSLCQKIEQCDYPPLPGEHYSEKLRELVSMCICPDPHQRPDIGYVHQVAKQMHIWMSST
In short: as §1

Src = molecular target: T3, Src (Homo sapiens, UniProt P12931); conditions: for kinase activity of Src: 10 μM complex, cell-free screen; for % Activity Run 1 / % Activity Run 2: 10 µM
T3 construct: His tag (N); host or cells: baculovirus expression system
T3 sequence (P12931 whole entry): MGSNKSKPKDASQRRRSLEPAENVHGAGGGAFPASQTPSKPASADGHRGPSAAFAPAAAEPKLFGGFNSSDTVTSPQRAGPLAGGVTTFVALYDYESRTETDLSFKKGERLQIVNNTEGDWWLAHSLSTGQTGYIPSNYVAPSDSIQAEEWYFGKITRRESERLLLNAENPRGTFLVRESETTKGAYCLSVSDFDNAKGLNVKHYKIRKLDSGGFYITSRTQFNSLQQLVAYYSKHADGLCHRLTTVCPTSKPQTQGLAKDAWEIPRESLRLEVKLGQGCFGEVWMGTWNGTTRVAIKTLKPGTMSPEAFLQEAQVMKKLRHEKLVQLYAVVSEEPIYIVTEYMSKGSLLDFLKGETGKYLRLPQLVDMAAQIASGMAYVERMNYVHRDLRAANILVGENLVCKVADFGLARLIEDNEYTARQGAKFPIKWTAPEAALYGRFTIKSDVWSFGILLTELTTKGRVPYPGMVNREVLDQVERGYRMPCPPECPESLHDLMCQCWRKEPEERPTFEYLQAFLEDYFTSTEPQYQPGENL
In short: as §1

[8] = molecular target: 140 purified human kinases (Homo sapiens, UniProt P28482)
Sequence of 140 purified human kinases (Homo sapiens, UniProt P28482) (P28482 whole entry): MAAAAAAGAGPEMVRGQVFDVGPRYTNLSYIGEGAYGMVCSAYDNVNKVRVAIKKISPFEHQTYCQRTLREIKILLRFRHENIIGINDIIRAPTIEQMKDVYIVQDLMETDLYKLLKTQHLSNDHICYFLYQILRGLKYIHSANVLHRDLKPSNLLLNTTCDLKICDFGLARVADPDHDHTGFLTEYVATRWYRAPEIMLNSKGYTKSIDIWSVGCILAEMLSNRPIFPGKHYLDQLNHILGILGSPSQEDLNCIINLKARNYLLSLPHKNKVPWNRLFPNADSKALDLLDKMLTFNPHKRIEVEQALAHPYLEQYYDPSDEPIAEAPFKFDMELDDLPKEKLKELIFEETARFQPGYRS
In short: as §1

`[Cu+2].[Cu+2].[Cu+2].c1ccc(-c2csc(NCCN(CCNc3nc(-c4ccccn4)cs3)CCNc3nc(-c4ccccn4)cs3)n2)nc1.c1ccc(-c2csc(NCCN(CCNc3nc(-c4ccccn4)cs3)CCNc3nc(-c4ccccn4)cs3)n2)nc1` [[L2Cu3]6+] was tested, and the “% Inhibition Run 1” value [1] was 38.7%, the “% Inhibition Run 2” value [1] was 33.3% and the “% Inhibition, Mean” value [1] was 36%. The mean % activity [1] was 64%, the “% activity” value ([1]; Run 1) was 61.3% and the “% activity” value ([1]; Run 2) was 66.7%. The “% Inhibition Run 1” value [2] was 92.4%, the “% Inhibition Run 2” value [2] was 91.3% and the “% Inhibition, Mean” value [2] was 92%. The mean % activity [2] was 8%, the “% activity” value ([2]; Run 1) was 7.6% and the “% activity” value ([2]; Run 2) was 8.7%. The “% Activity inhibition Mean” value ([2]; 10 µM) was 91.9%, the “% Activity inhibition Run 1” value ([2]; 10 µM) was 92.4% and the “% Activity inhibition Run 2” value ([2]; 10 µM) was 91.3%. For the same compound, the “% Activity remaining Run 1” value ([2]; 10 µM) was 7.60%, the “% Activity remaining Run 2” value ([2]; 10 µM) was 8.70% and the “% Inhibition Run 1” value ([3]; JAK3) was 39.3%. The “% Inhibition Run 2” value ([3]; JAK3) was 44.6%, the “% Inhibition, Mean” value ([3]; JAK3) was 42% and the mean % activity ([3]; JAK3) was 58%. The “% activity” value ([3]; JAK3, Run 1) was 60.7%, the “% activity” value ([3]; JAK3, Run 2) was 55.4% and the “% Inhibition Run 1” value ([4]; HER4) was 32.7%. The “% Inhibition Run 2” value ([4]; HER4) was 23.3%, the “% Inhibition, Mean” value ([4]; HER4) was 28% and the mean % activity ([4]; HER4) was 72%. For the same compound, the “% activity” value ([4]; HER4, Run 1) was 67.3%, the “% activity” value ([4]; HER4, Run 2) was 76.7% and the “% Activation, Mean value” [5] was 14%. The “% Inhibition Run 1” value [5] was -9.9%, the “% Inhibition Run 2” value [5] was -17.9% and the “% Inhibition, Mean” value [5] was -14%. For the same compound, the mean % activity [5] was 114%, the “% activity” value ([5]; Run 1) was 109.9% and the “% activity” value ([5]; Run 2) was 117.9%. The “% Activity Run 1” value ([5]; 10 µM) was 109.90%, the “% Activity Run 2” value ([5]; 10 µM) was 117.90% and the “% Inhibition Run 1” value ([6]; MLK3) was 94.9%. The “% Inhibition Run 2” value ([6]; MLK3) was 94.9%, the “% Inhibition, Mean” value ([6]; MLK3) was 95% and the mean % activity ([6]; MLK3) was 5%. For the same compound, the “% activity” value ([6]; MLK3, Run 1) was 5.1%, the “% activity” value ([6]; MLK3, Run 2) was 5.1% and the “% Activity inhibition Mean” value ([6]; MLK3, 10 µM) was 94.9%. For the same compound, the “% Activity inhibition Run 1” value ([6]; MLK3, 10 µM) was 94.9%, the “% Activity inhibition Run 2” value ([6]; MLK3, 10 µM) was 94.9% and the “% Activity remaining Run 1” value ([6]; MLK3, 10 µM) was 5.10%. For the same compound, the “% Activity remaining Run 2” value ([6]; MLK3, 10 µM) was 5.10%, the “% Inhibition Run 1” value ([7]; NEK6) was 34.4% and the “% Inhibition Run 2” value ([7]; NEK6) was 27.1%. The “% Inhibition, Mean” value ([7]; NEK6) was 31%, the mean % activity ([7]; NEK6) was 69% and the “% activity” value ([7]; NEK6, Run 1) was 65.6%. The “% activity” value ([7]; NEK6, Run 2) was 72.9%, the “kinase activity of Src” value (Src) was “increased” and the “% Activation, Mean value” (Src; Src) was 115%. The “% Inhibition Run 1” value (Src; Src) was -109.2%, the “% Inhibition Run 2” value (Src; Src) was -121.7% and the “% Inhibition, Mean” value (Src; Src) was -115%. The mean % activity (Src; Src) was 215%, the “% activity” value (Src; Src, Run 1) was 209.2% and the “% activity” value (Src; Src, Run 2) was 221.7%. For the same compound, the “% Activity Run 1” value (Src; Src) was 209.20%, the “% Activity Run 2” value (Src; Src) was 221.70% and the “% Inhibition Run 1” value ([8]; ERK2) was 12.1%. The “% Inhibition Run 2” value ([8]; ERK2) was 8.4%, the “% Inhibition, Mean” value ([8]; ERK2) was 10% and the mean % activity ([8]; ERK2) was 90%. The “% activity” value ([8]; ERK2, Run 1) was 87.9% and the “% activity” value ([8]; ERK2, Run 2) was 91.6%.
`CC(=O)[O-].CC(=O)[O-].CC(=O)[O-].CC(=O)[O-].CC(=O)[O-].CC(=O)[O-].[Zn+2].[Zn+2].[Zn+2].c1ccc(-c2csc(NCCN(CCNc3nc(-c4ccccn4)cs3)CCNc3nc(-c4ccccn4)cs3)n2)nc1.c1ccc(-c2csc(NCCN(CCNc3nc(-c4ccccn4)cs3)CCNc3nc(-c4ccccn4)cs3)n2)nc1` [[L2Zn3]6+] was tested, and the “% Inhibition, Mean” value [1] was 27%, the “% Inhibition, Run 1 / Run 2” value [1] was 35% and 19% and the mean % activity [1] was 73%. The “% activity” value ([1]; duplicate runs) was 65% and 81%, the “% Inhibition, Mean” value [2] was 50% and the “% Inhibition, Run 1 / Run 2” value [2] was 54% and 46%. The mean % activity [2] was 50%, the “% activity” value ([2]; duplicate runs) was 46% and 54% and the “% Inhibition, Mean” value ([3]; JAK3) was 17%. For the same compound, the mean % activity ([3]; JAK3) was 83%, the “% activity” value ([3]; JAK3, duplicate runs) was 66% and 99% and the “% Inhibition, Mean” value ([4]; HER4) was 3.65%. The mean % activity ([4]; HER4) was 96%, the “% activity” value ([4]; HER4, duplicate runs) was 88% and 105% and the “% Activation, Mean value” [5] was 4.4%. The “% Inhibition, Mean” value [5] was -4.4%, the “% Inhibition, Run 1 / Run 2” value [5] was -6% and -2.8% and the mean % activity [5] was 104%. For the same compound, the “% activity” value ([5]; duplicate runs) was 106% and 103%, the “% Inhibition, Mean” value ([6]; MLK3) was 5% and the “% Inhibition, Run 1 / Run 2” value ([6]; MLK3) was 4% and 6%. The mean % activity ([6]; MLK3) was 95%, the “% activity” value ([6]; MLK3, duplicate runs) was 96% and 94% and the “% Inhibition, Mean” value ([7]; NEK6) was 22%. For the same compound, the “% Inhibition, Run 1 / Run 2” value ([7]; NEK6) was 25% and 20%, the mean % activity ([7]; NEK6) was 78% and the “% activity” value ([7]; NEK6, duplicate runs) was 75% and 81%. The “kinase activity of Src” value (Src) was “increased”, the “% Activation, Mean value” (Src; Src) was 75% and the “% Inhibition, Mean” value (Src; Src) was -75%. For the same compound, the mean % activity (Src; Src) was 175%, the “% Activity Run 1” value (Src; Src) was 169.0% and the “% Activity Run 2” value (Src; Src) was 180.0%. The “% activity” value (Src; Src, duplicate runs) was 169% and 180%, the “% Inhibition, Mean” value ([8]; ERK2) was 18% and the “% Inhibition, Run 1 / Run 2” value ([8]; ERK2) was 19% and 18%. The mean % activity ([8]; ERK2) was 82% and the “% activity” value ([8]; ERK2, duplicate runs) was 81% and 82%.
